# Results: ChEMBL document CHEMBL1201861, “Genomics of Drug Sensitity in Cancer screening data, Wellcome Trust Sanger Institute”
# System: NCI-H1355;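 note: growth inhibition of human NCI-H1355 cells, read out by a cell viability assay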
# Test: cells
# Format: functional, cell-based, Homo sapiens
# Conditions: Homo sapiens, NCI-H1355
row,SMILES,IC50 [µM]
1,CCN(CC)CCCCNc1ncc2cc(-c3cc(OC)cc(OC)c3)c(NC(=O)NC(C)(C)C)nc2n1 [PD-173074],> 2

# System: ES3;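 note: growth inhibition of ES3 cells, read out with a cell viability assay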
# Test: cells
# Format: functional, cell-based, Homo sapiens
# Conditions: Homo sapiens, ES3
# Description: SANGER: Inhibition of human ES3 cell growth in a cell viability assay.
row,SMILES,IC50 [µM]
1,CCN(CC)CCCCNc1ncc2cc(-c3cc(OC)cc(OC)c3)c(NC(=O)NC(C)(C)C)nc2n1 [PD-173074],> 2

# System: HH
# Test: cells
# Format: functional, cell-based, Homo sapiens
# Conditions: Homo sapiens, HH
# Description: SANGER: Inhibition of human HH cell growth in a cell viability assay.
row,SMILES,IC50 [µM]
1,CCN(CC)CCCCNc1ncc2cc(-c3cc(OC)cc(OC)c3)c(NC(=O)NC(C)(C)C)nc2n1 [PD-173074],> 2

# System: EW-13;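 note: growth inhibition of EW-13 cells, read out with a cell viability assay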
# Test: cells
# Format: functional, cell-based, Homo sapiens
# Conditions: Homo sapiens, EW-13
# Description: SANGER: Inhibition of human EW-13 cell growth in a cell viability assay.
row,SMILES,IC50 [µM]
1,CCN(CC)CCCCNc1ncc2cc(-c3cc(OC)cc(OC)c3)c(NC(=O)NC(C)(C)C)nc2n1 [PD-173074],> 2

# System: C2BBe1;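 note: growth inhibition of C2BBe1 cells, read out through a viability assay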
# Test: cells
# Format: functional, cell-based, Homo sapiens
# Conditions: Homo sapiens, C2BBe1
# Description: SANGER: Inhibition of human C2BBe1 cell growth in a cell viability assay.
row,SMILES,IC50 [µM]
1,CCN(CC)CCCCNc1ncc2cc(-c3cc(OC)cc(OC)c3)c(NC(=O)NC(C)(C)C)nc2n1 [PD-173074],> 2

# System: DOHH-2;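 note: growth inhibition of human DOHH-2 cells, read out with a cell viability assay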
# Test: cells
# Format: functional, cell-based, Homo sapiens
# Conditions: Homo sapiens, DOHH-2
# Description: SANGER: Inhibition of human DOHH-2 cell growth in a cell viability assay.
row,SMILES,IC50 [µM]
1,CCN(CC)CCCCNc1ncc2cc(-c3cc(OC)cc(OC)c3)c(NC(=O)NC(C)(C)C)nc2n1 [PD-173074],> 2

# System: NCI-H526;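 note: growth inhibition of the human NCI-H526 cell line, measured by a cell viability assay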
# Test: cells
# Format: functional, cell-based, Homo sapiens
# Conditions: Homo sapiens, NCI-H526
# Description: SANGER: Inhibition of human NCI-H526 cell growth in a cell viability assay.
row,SMILES,IC50 [µM]
1,CCN(CC)CCCCNc1ncc2cc(-c3cc(OC)cc(OC)c3)c(NC(=O)NC(C)(C)C)nc2n1 [PD-173074],> 2

# System: K5
# Test: cells
# Format: functional, cell-based, Homo sapiens
# Conditions: Homo sapiens, K5
# Description: SANGER: Inhibition of human K5 cell growth in a cell viability assay.
row,SMILES,IC50 [µM]
1,CCN(CC)CCCCNc1ncc2cc(-c3cc(OC)cc(OC)c3)c(NC(=O)NC(C)(C)C)nc2n1 [PD-173074],> 2

# System: NMC-G1;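 note: growth inhibition of the NMC-G1 cell line, measured with a cell viability read-out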
# Test: cells
# Format: functional, cell-based, Homo sapiens
# Conditions: Homo sapiens, NMC-G1
# Description: SANGER: Inhibition of human NMC-G1 cell growth in a cell viability assay.
row,SMILES,IC50 [µM]
1,CCN(CC)CCCCNc1ncc2cc(-c3cc(OC)cc(OC)c3)c(NC(=O)NC(C)(C)C)nc2n1 [PD-173074],> 2

# System: JVM-3;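 note: growth inhibition of human JVM-3 cells, read out with a cell viability assay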
# Test: cells
# Format: functional, cell-based, Homo sapiens
# Conditions: Homo sapiens, JVM-3
# Description: SANGER: Inhibition of human JVM-3 cell growth in a cell viability assay.
row,SMILES,IC50 [µM]
1,CCN(CC)CCCCNc1ncc2cc(-c3cc(OC)cc(OC)c3)c(NC(=O)NC(C)(C)C)nc2n1 [PD-173074],> 2

# System: ATN-1;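 note: growth inhibition of human ATN-1 cells, read out with a cell viability assay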
# Test: cells
# Format: functional, cell-based, Homo sapiens
# Conditions: Homo sapiens, ATN-1
# Description: SANGER: Inhibition of human ATN-1 cell growth in a cell viability assay.
row,SMILES,IC50 [µM]
1,CCN(CC)CCCCNc1ncc2cc(-c3cc(OC)cc(OC)c3)c(NC(=O)NC(C)(C)C)nc2n1 [PD-173074],> 2

# System: LB2518-MEL;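 note: growth inhibition of human LB2518-MEL cells, measured with a cell viability assay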
# Test: cells
# Format: functional, cell-based, Homo sapiens
# Conditions: Homo sapiens, LB2518-MEL
# Description: SANGER: Inhibition of human LB2518-MEL cell growth in a cell viability assay.
row,SMILES,IC50 [µM]
1,CCN(CC)CCCCNc1ncc2cc(-c3cc(OC)cc(OC)c3)c(NC(=O)NC(C)(C)C)nc2n1 [PD-173074],> 2

# System: CAS-1;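 note: growth inhibition of CAS-1 cells, measured with a cell viability assay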
# Test: cells
# Format: functional, cell-based, Homo sapiens
# Conditions: Homo sapiens, CAS-1
# Description: SANGER: Inhibition of human CAS-1 cell growth in a cell viability assay.
row,SMILES,IC50 [µM]
1,CCN(CC)CCCCNc1ncc2cc(-c3cc(OC)cc(OC)c3)c(NC(=O)NC(C)(C)C)nc2n1 [PD-173074],> 2

# System: MS-1
# Test: cells
# Format: functional, cell-based, Homo sapiens
# Conditions: Homo sapiens, MS-1
# Description: SANGER: Inhibition of human MS-1 cell growth in a cell viability assay.
row,SMILES,IC50 [µM]
1,CCN(CC)CCCCNc1ncc2cc(-c3cc(OC)cc(OC)c3)c(NC(=O)NC(C)(C)C)nc2n1 [PD-173074],> 2

# System: ETK-1;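 note: growth inhibition of human ETK-1 cells, read out with a cell viability assay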
# Test: cells
# Format: functional, cell-based, Homo sapiens
# Conditions: Homo sapiens, ETK-1
# Description: SANGER: Inhibition of human ETK-1 cell growth in a cell viability assay.
row,SMILES,IC50 [µM]
1,CCN(CC)CCCCNc1ncc2cc(-c3cc(OC)cc(OC)c3)c(NC(=O)NC(C)(C)C)nc2n1 [PD-173074],> 2

# System: SK-NEP-1;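 note: growth inhibition of human SK-NEP-1 cells, read out by a cell viability assay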
# Test: cells
# Format: functional, cell-based, Homo sapiens
# Conditions: Homo sapiens, SK-NEP-1
# Description: SANGER: Inhibition of human SK-NEP-1 cell growth in a cell viability assay.
row,SMILES,IC50 [µM]
1,CCN(CC)CCCCNc1ncc2cc(-c3cc(OC)cc(OC)c3)c(NC(=O)NC(C)(C)C)nc2n1 [PD-173074],> 2

# System: EW-3;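 note: cell viability assay read-out, IC50 reflects inhibition of growth of the EW-3 cells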
# Test: cells
# Format: functional, cell-based, Homo sapiens
# Conditions: Homo sapiens, EW-3
# Description: SANGER: Inhibition of human EW-3 cell growth in a cell viability assay.
row,SMILES,IC50 [µM]
1,CCN(CC)CCCCNc1ncc2cc(-c3cc(OC)cc(OC)c3)c(NC(=O)NC(C)(C)C)nc2n1 [PD-173074],> 2

# System: EW-11;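 note: growth inhibition of human EW-11 cells, measured with a cell viability assay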
# Test: cells
# Format: functional, cell-based, Homo sapiens
# Conditions: Homo sapiens, EW-11
# Description: SANGER: Inhibition of human EW-11 cell growth in a cell viability assay.
row,SMILES,IC50 [µM]
1,CCN(CC)CCCCNc1ncc2cc(-c3cc(OC)cc(OC)c3)c(NC(=O)NC(C)(C)C)nc2n1 [PD-173074],> 2

# System: RPMI-8226
# Test: cells
# Format: functional, cell-based, Homo sapiens
# Conditions: Homo sapiens, RPMI-8226
# Description: SANGER: Inhibition of human RPMI-8226 cell growth in a cell viability assay.
row,SMILES,IC50 [µM]
1,CCN(CC)CCCCNc1ncc2cc(-c3cc(OC)cc(OC)c3)c(NC(=O)NC(C)(C)C)nc2n1 [PD-173074],> 2

# System: RH-1;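 note: growth inhibition of human RH-1 cells, read out with a cell viability assay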
# Test: cells
# Format: functional, cell-based, Homo sapiens
# Conditions: Homo sapiens, RH-1
# Description: SANGER: Inhibition of human RH-1 cell growth in a cell viability assay.
row,SMILES,IC50 [µM]
1,CCN(CC)CCCCNc1ncc2cc(-c3cc(OC)cc(OC)c3)c(NC(=O)NC(C)(C)C)nc2n1 [PD-173074],> 2

# System: MFM-223
# Test: cells
# Format: functional, cell-based, Homo sapiens
# Conditions: Homo sapiens, MFM-223
# Description: SANGER: Inhibition of human MFM-223 cell growth in a cell viability assay.
row,SMILES,IC50 [µM]
1,CCN(CC)CCCCNc1ncc2cc(-c3cc(OC)cc(OC)c3)c(NC(=O)NC(C)(C)C)nc2n1 [PD-173074],0.216

# System: DMS-114
# Test: cells
# Format: functional, cell-based, Homo sapiens
# Conditions: Homo sapiens, DMS-114
row,SMILES,IC50 [µM]
1,CCN(CC)CCCCNc1ncc2cc(-c3cc(OC)cc(OC)c3)c(NC(=O)NC(C)(C)C)nc2n1 [PD-173074],1.37

# System: IST-SL1;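 note: growth inhibition of human IST-SL1 cells, read out with a cell viability assay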
# Test: cells
# Format: functional, cell-based, Homo sapiens
# Conditions: Homo sapiens, IST-SL1
# Description: SANGER: Inhibition of human IST-SL1 cell growth in a cell viability assay.
row,SMILES,IC50 [µM]
1,CCN(CC)CCCCNc1ncc2cc(-c3cc(OC)cc(OC)c3)c(NC(=O)NC(C)(C)C)nc2n1 [PD-173074],> 2

# System: KGN;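 note: growth inhibition of KGN cells, read out with a cell viability assay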
# Test: cells
# Format: functional, cell-based, Homo sapiens
# Conditions: Homo sapiens, KGN
# Description: SANGER: Inhibition of human KGN cell growth in a cell viability assay.
row,SMILES,IC50 [µM]
1,CCN(CC)CCCCNc1ncc2cc(-c3cc(OC)cc(OC)c3)c(NC(=O)NC(C)(C)C)nc2n1 [PD-173074],> 2
